Data: patent US20060135587A1, “Method and compounds for promoting healing and reducing inflammation” (priority 2002, published 2006)

How the values were obtained:
[1] = tested on: acute Con A-induced inflammation; assay: Acute Con A-induced inflammation (paw oedema) in mice; type: in vivo
Description: Saline solution was similarly administered to the control animals. There were 10 mice in each group. After one hour, con A at a dose of 100 mkg/20 g of body weight was administered by sub-plantar injection into the plantar aponeurosis of the left paws of mice of both the experimental and control groups. The same amount of saline splution was injected into the contralateral paws. After one hour, the mice were killed and the experimental and control paws were weighed to assess the reaction index of the inflammation in the ankle-joint (Liubimov et al, 1999).
The anti-inflammatory effect of Compound 2 and Compound 7 was compared in male mice weighing 18-22 g, using the model described in Example 9. The ED50, i.e. the dose reducing paw ooedema by 50% one hour after injection of Concanavalin A, was calculated.

experimental granuloma = assay: Cotton-wool granuloma (chronic proliferative inflammation) in rats; type: in vivo; settings: 100 mg/kg orally, 12 days
Description: We investigated the ability of compound (2) to reduce the formation of granulation tissue in the inflammatory focus which develops at the site at which a non-sterile cotton-wool roll weighing 40 mg is implanted subcutaneously (Swingle and Shideman, 1972). Compound (2) was administered orally to male rats weighing 130-150 g at a dose of 100 mg/kg for 6 days before the cotton-wool roll was implanted, and then for 6 days at the same dose while the granuloma developed. Anti-inflammatory agents, such as ibuprofen and butadione, were used for comparison, using the same procedure. There were 10 rats in each group.
After 12 days the experiment was terminated, and the granulomas were excised, weighed, and the wet weight of the granulation tissue was measured. The dry mass of the granuloma was measured after drying for 24 hours at 70° C., and the exudative and proliferative stages of the granulomas were calculated. Statistical analysis was performed using the Student's parametric test.

[2] = tested on: lesions of the gastric mucosa; assay: Gastric lesions induced by immobilization and hypothermia; type: in vivo, rats; set-up: % reduction of degree of ulceration / % reduction of ulcerated area: concentration or dose not given beside the values; settings: Protective effect, 30 minutes before the test
Description: The models used gastric ulcers induced by
b) Immobilization and hypothermia (induced by water cooling);
The compounds were administered intraperitoneally at a dose of 20 mg/kg; in the cryogenic ulcer model compound 2 was administered either intraperitoneally (10 mg/kg) or orally (20 mg/kg twice daily, ie. a total of 40 mg/kg/day) and was compared to orally-administered gastrocepin (1 mg/kg twice daily, ie. a total of 2 mg/kg/day).

myocardial infarction = assay: Clinical comparison of Compound 2 and Riboxin in subacute myocardial infarction (Example 25); type: in vivo, human
Description: A total of 94 patients were examined; of these:
Conventional therapy as for example 24 was given to 30 patients. Each patient continued to receive the treatment which s/he had been given prior to commencement of the trial. Compound 2 was administered in addition to the previous treatment.
All the patients underwent standard laboratory tests prior to commencement of Compound 2 therapy, 14 days after the beginning of the course and upon completion of the course. The tests included clinical blood analysis; general urine analysis; evaluation of creatinine, bilirubin, transaminase activity, blood sugar, cholesterol and β-lipoproteins, malonic dialdehyde, Schiff bases, zinc, iron, copper, plasma potassium and sodium, prothrombin and fibrinogen; and an ECG examination in dynamics.
All the patients received conventional therapy, i.e. nitrates, anticoagulants and/or hypotensive agents as appropriate.
Combination therapy included Compound 2 (1st group—32 patients) or Riboxin (2nd group—18 patients). The agents were administered at a dose of 200 mg three times per day.

[3] = tested on: carbon tetrachloride-induced liver damage; assay: Carbon tetrachloride-induced liver damage in rats; type: in vivo; settings: 20 mg/kg orally; CCl4 intoxication
Description: The prophylactic and therapeutic effects of Compound 2 on liver damage were examined in a carbon tetrachloride intoxication model. Liver dysfunction was induced by the […] injection of a liquid paraffin-based 50% carbon tetrachloride solution at a dose of 0.8 ml per 100 g of body mass daily for four days. Inbred male white rats weighing 200-220 g were treated with Compound 2 at a dose of 20 mg/kg given orally by intragastric tube on the eighth day after injection of carbon tetrachloride, and daily for four days thereafter. Control animals received carbon tetrachloride only. Animals were sacrificed 7 days after the last injection of carbon tetrachloride, when the morphological changes are most pronounced, and samples of liver were taken for histology.

bone plate defect = assay: Repair of bone plate defect of the rat lower jaw; type: in vivo, rats; settings: 50 mg/kg over the course of three months
Description: A round or oval defect of the bone plate with a diameter of 2.5 mm was produced in the bone tissue of the rat lower jaw, using a dental drill under ether anaesthesia. In the post-operative period, the animals were kept in separate cages, with normal food and water ad libitum. The experiments were performed on 130 male rats weighing 180-200 g, with 10 rats in each group.
The animal test groups were treated with Compound 2 (50 or 100 mg/kg) or methyl uracil (50 mg/kg) 24 hours after the damage and on a daily basis for three months. […] The following groups were used:
The repair pattern of the injured bone was assessed morphologically on tissue sections after 30, 60 and 90 days. The sections were examined by light microscopy at magnifications of ×15, ×100, ×200, and ×400.

[4] = Table 4, 0.005M dose (Compound 2 19 mg/kg, Compound 7 16.4 mg/kg) + Con A
[5] = Table 4, 0.01M dose (Compound 2 38 mg/kg, Compound 7 32 mg/kg) + Con A
[6] = Table 4, 0.015M dose (Compound 2 57 mg/kg, Compound 7 49 mg/kg) + Con A
[7] = Table 4, 0.02M dose (Compound 2 76 mg/kg, Compound 7 65.6 mg/kg) + Con A
[8] = 200 mg three times per day plus conventional therapy
[9] = patients with repeated myocardial infarct

CC[n+]1cn(C)c(C(=O)NC)c1C(=O)NC.O=S(=O)([O-])c1ccccc1 [Compound 2, 1-methyl-3-ethyl-4,5-bis(N-methylcarbamoyl)-imidazolium benzenesulfonate]
Reaction index (%) ([1]; Table 3, 10 mg/kg intra-peritoneally one hour before Con A, male CBA mice): 10.4 ± 2.0 % | Reaction index (%) ([1]; Table 3, 50 mg/kg intra-peritoneally one hour before Con A, male CBA mice): 8.4 ± 0.9 % | Paw oedema reduction (%) [1, 4]: 66% | Reaction index (%) [1, 4]: 5.4 ± 2.0% | Paw oedema reduction (%) [1, 5]: 52% | Reaction index (%) [1, 5]: 7.7 ± 1.8% | Paw oedema reduction (%) ([1]; Table 4, 10 mg/kg + Con A): 33% | Reaction index (%) ([1]; Table 4, 10 mg/kg + Con A): 11.1 ± 3.5% | Paw oedema reduction (%) [1, 6]: 66% | Reaction index (%) [1, 6]: 5.3 ± 2.0% | Paw oedema reduction (%) [1, 7]: 77% | Reaction index (%) [1, 7]: 3.3 ± 2.0% | ED50, dose reducing paw oedema by 50% one hour after injection of Concanavalin A ([1]; male mice): 33 mg/kg | Granuloma weight (mg) Dry weight (experimental granuloma): 180.71 ± 14.16 mg | Granuloma weight (mg) Exudative stage (experimental granuloma): 775.58 mg | Granuloma weight (mg) Fresh weight (experimental granuloma): 956.29 ± 115.5 mg | Granuloma weight (mg) Proliferative stages (experimental granuloma): 140.71 mg | % reduction of degree of ulceration [2]: 64% | % reduction of ulcerated area [2]: 62% | Area of lesion [2]: 4.1 ± 0.8 | Average number of lesions per animal ([2]; 20 mg/kg intraperitoneally): 4.1 ± 0.9 | cholesterol levels (myocardial infarction; [8]): 96.5% | level of prothrombin (myocardial infarction; [8]): 91.3% | ejection fraction (myocardial infarction; 200 mg three times per day plus conventional therapy, 54.4±1.5% in the absence of the agent): 60.0±0.5% | malonic dialdehyde (myocardial infarction; 21st day, 1.3 before treatment, normal 1.21): 1 nmol/mL | superoxide dismutase levels (myocardial infarction; after therapy, 18-20 before treatment, norm 23): 25 conventional units | level of Schiff bases (myocardial infarction; after therapy, 75 before treatment, normal 60): 40 conventional units | allergic reactions or side effects (myocardial infarction; human, in vivo): did not develop any allergic reactions or side effects | cases in which cicatrisation took place one or two days earlier (myocardial infarction; [9]): 90% | time of cicatrisation on the average (myocardial infarction; [9]): 27 days | Average mitotic index [3]: 0.021 ± 0.001 arbitrary | Elimination of glycogen from damaged zones (arbitrary) [3]: 4.9 ± 0.4 arbitrary | Necrosis of hepatocytes (arbitrary) [3]: 2.7 ± 0.3 arbitrary | closing of bone defect (bone plate defect): the defect was almost fully closed by the newly formed primary callus bone tissue
